Measured values from patent US20170015649A1, “N-Thio-anthranilamid compounds and their use as pesticides” (BASF SE, priority 2005, published 2017).
Where two headings read alike, the source gives them in different places.

Columns and labels:
[1] = tested on: Diamond Back Moth (Plutella xylostella); assay: Activity against diamond back moth, cabbage leaf disk dip; format: in vivo; conditions: foliar, 72 h
Procedure: The active compounds were formulated in 50:50 acetone:water and 0.1% (vol/vol) Alkamuls EL 620 surfactant. A 6 cm leaf disk of cabbage leaves was dipped in the test solution for 3 seconds and allowed to air dry in a Petri plate lined with moist filter paper. The leaf disk was inoculated with 10 third instar larvae and kept at 25-27° C. and 50-60% humidity for 3 days. Mortality was assessed after 72 h of treatment.

[2] = tested on: Southern Armyworm (Spodoptera eridania), 2nd Instar Larvae; assay: whole plant or invertebrate; format: in vivo; conditions: in Phaseolus lunatus, foliar, 120 h
Procedure: The active compounds were formulated for testing the activity against insects and arachnids as a 10.000 ppm solution in a mixture of 35% acetone and water, which was diluted with water, if needed.
A Sieva lima bean leaf was dipped in the test solution and allowed to dry. The leaf was then placed in a petri dish containing a filter paper on the bottom and ten 2nd instar caterpillars. At 5 days, observations are made of mortality and reduced feeding.

[3] = tested on: Yellowfever Mosquito (Aedes aegyptii) Larvae; assay: Activity against mosquito larvae via water treatment; format: in vivo; conditions: read-out: mortality of yellowfever mosquito
Procedure: 11. Activity Against Yellowfever Mosquito (Aedes aegyptii), House Mosquito (Culex quinquefasciatus) and Malaria Mosquito (Anopheles albimanus) Larvae Via Water Treatment
Well plates were used as test arenas. The active ingredient was dissolved in acetone and diluted with water to obtain the concentrations needed. The final solutions containing appr. 1% acetone were placed into each well. Approximately 10 mosquito larvae (4th-instars) in 1 ml water were added to each well. Larvae were fed one drop of liver powder each day. The dishes were covered and maintained at 22° C. Mortality was recorded daily and dead larvae and live or dead pupae were removed daily. At the end of the test remaining live larvae were recorded and percent mortality was calculated.

[4] = tested on: Tobacco Budworm (Heliothis virescens); assay: whole plant or invertebrate; conditions: 144 h
[5] = tested on: Vetch Aphid (Megoura viciae); assay: Activity against vetch aphid, bean leaf disks; format: in vivo; conditions: foliar, 144 h
Procedure: Bean leaf disks were placed into microtiterplates filled with 0.8% agar-agar and 2.5 ppm OPUS™. The leaf disks were sprayed with 2.5 μl of the test solution and 5 to 8 adult aphids were placed into the microtiterplates which were then closed and kept at 22-24° C. and 35-45% under fluorescent light for 6 days. Mortality was assessed on the basis of vital, reproduced aphids. Tests were replicated 2 times.

[6] = tested on: Silverleaf Whitefly (Bemisia argentifolii); assay: Activity against silverleaf whitefly, cotton cotyledon dip; format: in vivo; conditions: 72 h, cotyledons dipped, adults, 3 days after treatment
Procedure: (§1) The active compounds were formulated in 50:50 acetone:water and 100 ppm Kinetic™ surfactant.
Selected cotton plants were grown to the cotyledon state (one plant per pot). The cotyledons were dipped into the test solution to provide complete coverage of the foliage and placed in a well-vented area to dry. Each pot with treated seedling was placed in a plastic cup and 10 to 12 whitefly adults (approximately 3-5 day old) were introduced. The insects were collected using an aspirator and an 0.6 cm, non-toxic Tygon™ tubing (R-3603) connected to a barrier pipette tip. The tip, containing the collected insects, was then gently inserted into the soil containing the treated plant, allowing insects to crawl out of the tip to reach the foliage for feeding. The cups were covered with a reusable screened lid (150 micron mesh polyester screen PeCap from Tetko Inc). Test plants were maintained in the holding room at about 25° C. and 20-40% relative humidity for 3 days avoiding direct exposure to the fluorescent light (24 hour photoperiod) to prevent trapping of heat inside the cup. Mortality was assessed 3 days after treatment of the plants.

[7] = tested on: Cotton Aphid (Aphis gossypii); assay: Activity against cotton aphid, cotton cotyledon dip; format: in vivo; conditions: 120 h, cotyledons dipped, after 5 days
Excerpt: as §1
Cotton plants at the cotyledon stage (one plant per pot) were infested by placing a heavily infested leaf from the main colony on top of each cotyledon. The aphids were allowed to transfer to the host plant overnight, and the leaf used to transfer the aphids was removed. The cotyledons were dipped in the test solution and allowed to dry. After 5 days, mortality counts were made.

[8] = tested on: Boll Weevil (Anthonomus grandis); assay: Activity against boll weevil, eggs in microtiterplates; format: in vivo; conditions: eggs sprayed with 20 μl test solution, 3 to 5 days
Procedure: 10 to 15 eggs were placed into microtiterplates filled with 2% agar-agar in water and 300 ppm formaline. […] Mortality was assessed on the basis of the remaining unhatched eggs or larvae on the agar surface and/or quantity and depth of the digging channels caused by the hatched larvae. Tests were replicated 2 times.

Row | Compound | mortality at 300 ppm [1] [%] | mortality at 300 ppm [2] [%] | further results
1 | CCN(CC)S(=O)(=O)NC(=O)c1cccc(C)c1NC(=O)c1cc(Br)nn1-c1ncccc1Cl | – | – | melting point: 191 °C
2 | Cc1cccc(C(=O)NS(=O)(=O)N(C)C)c1NC(=O)c1cc(C(F)(F)F)nn1-c1ncccc1Cl | – | – | melting point: 183 °C
3 | CCS(C)=NC(=O)c1cc(C#N)cc(C)c1NC(=O)c1cc(C(F)(F)F)nn1-c1ncccc1Cl (centres unmarked) | – | – | melting point: 65 °C
4 | CCN(C)S(=O)(=O)NC(=O)c1cc(Cl)cc(C)c1NC(=O)c1cc(Br)nn1-c1ncccc1Cl [I.1-7] | > 75 | > 75 | –
5 | Cc1cc(Cl)cc(C(=O)NS(=O)(=O)N(C)C)c1NC(=O)c1cc(Br)nn1-c1ncccc1Cl [I.1-9] | > 75 | > 75 | –
6 | CCN(C)S(=O)(=O)NC(=O)c1cccc(C)c1NC(=O)c1cc(Br)nn1-c1ncccc1Cl [I.1-27] | > 75 | > 75 | –
7 | Cc1cccc(C(=O)NS(=O)(=O)N(C)C)c1NC(=O)c1cc(Br)nn1-c1ncccc1Cl [I.1-30] | – | > 75 | –
8 | CCN(CC)S(=O)(=O)NC(=O)c1cc(Cl)cc(C)c1NC(=O)c1cc(C(F)(F)F)nn1-c1ncccc1Cl [I.1-37] | – | – | mortality at 10 ppm [3]: > 70%
9 | CCN(C)S(=O)(=O)NC(=O)c1cc(Cl)cc(C)c1NC(=O)c1cc(C(F)(F)F)nn1-c1ncccc1Cl [I.1-45] | > 75 | > 75 | –
10 | Cc1cc(Cl)cc(C(=O)NS(=O)(=O)N(C)C)c1NC(=O)c1cc(C(F)(F)F)nn1-c1ncccc1Cl [I.1-47] | > 75 | > 75 | –
11 | CCN(CC)S(=O)(=O)NC(=O)c1cccc(C)c1NC(=O)c1cc(C(F)(F)F)nn1-c1ncccc1Cl [I.1-53] | – | > 75 | mortality at 2500 ppm [4]: > 75%; mortality at 2500 ppm [5]: > 75%
12 | CCN(C)S(=O)(=O)NC(=O)c1cccc(C)c1NC(=O)c1cc(C(F)(F)F)nn1-c1ncccc1Cl [I.1-61] | > 75 | > 75 | –
13 | CCS(CC)=NC(=O)c1cc(Cl)cc(C)c1NC(=O)c1cc(Br)nn1-c1ncccc1Cl [I.3-3] | – | – | mortality at 300 ppm [6]: > 90%; mortality at 2500 ppm [4]: > 75%; mortality at 300 ppm [7]: > 50%; mortality at 2500 ppm ([5]; 2500 ppm, leaf disks sprayed with 2.5 μl, 6 days, compared to 0% mortality of untreated controls, read-out: mortality): > 75%; mortality at 300 ppm ([2]; 300 ppm, leaf dipped, at 5 days, read-out: mortality): > 75%; mortality at 2500 ppm [8]: > 75%
